Assay results from the supplement of paper PMC10307832.

Columns and labels:
Experiment in all cases: relative viability (nuclei count vs DMSO), 5 days (fraction); higher = more cells survive
BMX-IN-1 + Navitoclax = compound: C=CC(=O)Nc1cc(-n2c(=O)ccc3cnc4ccc(-c5ccc(NS(C)(=O)=O)cc5)cc4c32)ccc1C [BMX-IN-1] + CC1(C)CCC(c2ccc(Cl)cc2)=C(CN2CCN(c3ccc(C(=O)NS(=O)(=O)c4ccc(N[C@H](CCN5CCOCC5)CSc5ccccc5)c(S(=O)(=O)C(F)(F)F)c4)cc3)CC2)C1 [Navitoclax] (partner 0.5 µM)
Outline: (§1)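 Relative viability is defined as nuclei in treated wells over nuclei in vehicle wells. Duplicate plates were run and medians reported. Lung cancer cell lines in 1536-well plates were dosed by pin tool one day after seeding, with one drug or with a fixed anchor-drug dose plus five library-drug doses (not always all listed) in √10 steps, and nuclei were counted after 5 days.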

PAC-1 + Trametinib = compound: C=CCc1cccc(/C=N/NC(=O)CN2CCN(Cc3ccccc3)CC2)c1O [PAC-1] + CC(=O)Nc1cccc(-n2c(=O)n(C3CC3)c(=O)c3c(Nc4ccc(I)cc4F)n(C)c(=O)c(C)c32)c1 [Trametinib] (partner 0.02 µM)
Outline: as §1

BMX-IN-1 + Alpelisib = compound: C=CC(=O)Nc1cc(-n2c(=O)ccc3cnc4ccc(-c5ccc(NS(C)(=O)=O)cc5)cc4c32)ccc1C [BMX-IN-1] + Cc1nc(NC(=O)N2CCC[C@H]2C(N)=O)sc1-c1ccnc(C(C)(C)C(F)(F)F)c1 [Alpelisib] (partner 2 µM)
Outline: as §1

BMX-IN-1 + Foretinib = compound: C=CC(=O)Nc1cc(-n2c(=O)ccc3cnc4ccc(-c5ccc(NS(C)(=O)=O)cc5)cc4c32)ccc1C [BMX-IN-1] + COc1cc2c(Oc3ccc(NC(=O)C4(C(=O)Nc5ccc(F)cc5)CC4)cc3F)ccnc2cc1OCCCN1CCOCC1 [Foretinib] (partner 0.25 µM)
Outline: as §1

PAC-1 + Dasatinib = compound: C=CCc1cccc(/C=N/NC(=O)CN2CCN(Cc3ccccc3)CC2)c1O [PAC-1] + Cc1nc(Nc2ncc(C(=O)Nc3c(C)cccc3Cl)s2)cc(N2CCN(CCO)CC2)n1 [Dasatinib] (partner 0.075 µM)
Outline: as §1

Cell Line	relative viability (BMX-IN-1 + Navitoclax; first compound 0.02 µM)	relative viability (BMX-IN-1 + Navitoclax; first compound 0.2 µM)	relative viability (BMX-IN-1 + Navitoclax; first compound 0.6325 µM)	relative viability (BMX-IN-1 + Navitoclax; first compound 2 µM)	relative viability (PAC-1 + Trametinib; first compound 0.02 µM)	relative viability (PAC-1 + Trametinib; first compound 0.06325 µM)	relative viability (PAC-1 + Trametinib; first compound 0.2 µM)	relative viability (PAC-1 + Trametinib; first compound 2 µM)	relative viability (BMX-IN-1 + Alpelisib; first compound 0.02 µM)	relative viability (BMX-IN-1 + Alpelisib; first compound 0.2 µM)	relative viability (BMX-IN-1 + Alpelisib; first compound 0.6325 µM)	relative viability (BMX-IN-1 + Alpelisib; first compound 2 µM)	relative viability (BMX-IN-1 + Foretinib; first compound 0.02 µM)	relative viability (BMX-IN-1 + Foretinib; first compound 0.2 µM)	relative viability (BMX-IN-1 + Foretinib; first compound 0.6325 µM)	relative viability (BMX-IN-1 + Foretinib; first compound 2 µM)	relative viability (PAC-1 + Dasatinib; first compound 0.02 µM)	relative viability (PAC-1 + Dasatinib; first compound 0.06325 µM)	relative viability (PAC-1 + Dasatinib; first compound 0.2 µM)	relative viability (PAC-1 + Dasatinib; first compound 2 µM)
NCI-H1355	1	0.969	0.94	0.99	0.464	0.467	0.416	0.419	0.906	0.943	0.865	0.786	1.1	1.15	0.921	0.977	0.75	0.722	0.667	0.711
NCI-H2085	1.23	1.31	1.2	1.07	0.452	0.521	0.458	0.629	0.944	0.981	0.834	0.917	0.978	0.847	0.763	0.804	0.225	0.234	0.285	0.213
NCI-H460			1.32	1.25	0.136	0.156	0.204	0.286	0.827	0.752	0.566	0.568	1.22	1.09	1.11	1.06	0.524	0.477	0.464	0.521
NCI-H1666	1.09	0.979	0.938	0.92	0.909	0.868	0.862	0.914	1.03	1.02	1.13	1.08	0.959	1.04	1.03	0.935	0.834	0.845	0.793	0.836
LK-2	1.09	1.04	1.02	0.923	0.758	0.629	0.785	0.791	1.75	1.43	1.04	0.993	1.59	1.54	1.04	1.03	0.259	0.332	0.241	0.31
NCI-H2009	1.23	1.31	1.19	1.24	0.295	0.35	0.255	0.234	1.05	1.33	1.25	1.18	1.38	1.26	1.24	1.28	0.267	0.305	0.291	0.334
COR-L 105	0.756	0.779	0.875	0.709	0.436	0.453	0.47	0.355	1.33	1.05	1.11	0.886	1.12	1.2	1.37	1.17	0.361	0.365	0.34	0.412
LXF-289	0.954	1.06	1.03	1.01	0.7	0.718	0.705	0.675	1.12	1.14	1.11	1.07	1.08	1.03	1.06	1	0.228	0.226	0.192	0.223
HARA	1.22	1.36	1.09	1.08	0.632	0.697	0.621	0.473	1.04	0.883	0.787	0.846	1.43	1.27	0.936	0.799	0.336	0.251	0.26	0.26
NCI-H1975	1.34	1.19	1.34	1	0.391	0.424	0.325	0.349	0.714	0.686	0.664	0.592	0.938	1.08	1.01	0.93	0.358	0.363	0.336	0.347
UMC-11	0.285	0.327	0.283	0.294	0.731	0.742	0.878	0.713	1.16	1.28	1.08	0.98	1.15	1.13	0.981	1.11	0.483	0.484	0.462	0.437
NCI-H2023	1.36	1.15	1.12	0.988	0.723	0.542	0.47	0.402	0.617	0.675	0.686	0.627	0.928	1.12	1.06	0.926	0.553	0.615	0.42	0.55
NCI-H23	0.979	0.85	0.858	0.738	0.308	0.388	0.336	0.442	0.617	0.793	0.603	0.692	1.18	0.965	0.938	0.999	0.734	0.887	0.826	0.948
CAL-12T	1.28	1.21	1.22	1.24	0.329	0.359	0.353	0.386	1.74	1.27	1.04	1.32	1.28	1.2	1.31	1.1	0.288	0.393	0.459	0.404
LCLC-97TM1	0.349	0.429	0.322	0.46	0.179	0.196		0.221	0.283	0.222	0.244	0.294	1.01	0.917	1.03	1.1	0.692	0.848	0.748	0.911
NCI-H1944	0.992	1.11	1.02	1.08	0.414	0.393	0.433	0.444	0.858	0.931	0.921	0.798	0.972	0.83	0.976	0.905	0.209	0.222	0.204	0.216
